Assay results published in US20060257481A1, “Sustained release formulation and dosing schedule of leukotriene synthesis inhibitor for human therapy” (deCODE Genetics ehf., priority 2005, published 2006).
Several values for one entry are separate records, joined by “and”; a condition that tells them apart may be missing. Equal entries are not always repeated. Where two headings read alike, the source gives them in different places.

How the values were obtained:
[1] = tested on: MPO release by neutrophils and other cells in human whole blood; experiment: In vitro MPO release in human whole blood after ionomycin stimulation; format: cell-based
Method: (§1) Neutrophils and other cells in human whole blood respond in vitro to activation by a calcium ionophore (e.g., ionomycin), with an increase in LTB4 production and with coupled release of MPO stimulated in part by LTB4 production in the assay. The effect of DG-031 on the capacity for production of LTB4 in vitro after ionomycin stimulation was evaluated at concentrations ranging from 0.1 μM up to 240 μM.

CRP [2] = experiment: Study DG-031-203 open label dose ranging: serum CRP; format: in vivo, human
Method: (§2) The study also collected information on the dose-related effect of DG-031 on capacity for LTB4 production (ex vivo), plasma MPO, and serum-CRP. […] The pattern observed supported a concentration dependent pharmacologic effect of DG-031 on capacity for LTB4 production measured ex vivo. The effects on LTB4 production amounted to a 30% (p=0.016) and 25% (p=0.094) reduction with the 375 mg BID and 250 mg TID doses, respectively.

[3] = tested on: LTB4 production in human whole blood; experiment: In vitro LTB4 production in human whole blood after ionomycin stimulation; format: cell-based
Method: as §1

[4] = cited from earlier work; for Safety and tolerability: asthma patients
Amyloid A = experiment: Study DG-031-201 cross-over trial: Amyloid A in serum; format: in vivo, human; conditions: week 6, p=0.05
Method: Patients who met the study eligebility criteria were enrolled and randomized into 3 different dose-level groups: (1) 64 patients on 250 mg/day therapy with DG-031 (250 mg q.d.), vs placebo; (2) 64 patients on 500 mg/day therapy with DG-031 (250 mg b.i.d.) vs placebo; and (3) 63 patients on 750 mg/day therapy with DG-031 (250 mg t.i.d.) vs placebo. […] All patients received 3 tablets per day. Treatment periods, 4 weeks in duration each, were separated by a 2-week washout period. The placebo tablets were identical in shape, color, form and taste to the active tablets except that they contained no active drug ingredients. Treatment with DG-031 or placebo was in addition to the subject's standard care, including all medications and treatment plan as prescribed by the subject's cardiologist prior to enrolment. A total of 191 subjects were enrolled, with 172 completing all 8 visits or 8 patients short of the target of 180 patients. […]
All data were analyzed according to a pre-established statistical analysis plan (SAP) and by intention-to-treat (ITT). […] The difference between DG-031 and placebo treatment was the primary outcome, assessed separately for each of the biomarkers. […]

CRP [5] = experiment: Study DG-031-201 cross-over trial: Hs-CRP in serum; format: in vivo, human; conditions: for CRP: Study 201, 2-6 wks
Method: (§3) Patients who met the study eligebility criteria were enrolled and randomized into 3 different dose-level groups: (1) 64 patients on 250 mg/day therapy with DG-031 (250 mg q.d.), vs placebo; (2) 64 patients on 500 mg/day therapy with DG-031 (250 mg b.i.d.) vs placebo; and (3) 63 patients on 750 mg/day therapy with DG-031 (250 mg t.i.d.) vs placebo. […] All patients received 3 tablets per day. Treatment periods, 4 weeks in duration each, were separated by a 2-week washout period. The placebo tablets were identical in shape, color, form and taste to the active tablets except that they contained no active drug ingredients. Treatment with DG-031 or placebo was in addition to the subject's standard care, including all medications and treatment plan as prescribed by the subject's cardiologist prior to enrolment. A total of 191 subjects were enrolled, with 172 completing all 8 visits or 8 patients short of the target of 180 patients.
(§4) The primary objective was to determine whether the FLAP inhibitor has a statistically significant effect, compared to placebo, on one or more biomarkers of MI risk, including: (1) ionomycin-induced LTB4 and MPO release by neutrophils ex vivo; (2) MPO, CRP, N-tyrosine, Lp-PLA2 or amyloid A in serum, or (3) LTE4 in urine. The secondary objective was to determine whether the effect of DG-031 was dose-dependent. The tertiary objective was to assess other biomarkers (See Results). Evaluation of safety and tolerability of the drug was also a primary endpoint.
(§5) All data were analyzed according to a pre-established statistical analysis plan (SAP) and by intention-to-treat (ITT). Each arm of the study, as well as pooled sets (combining dose levels), was considered for the primary analysis. Each such set is an AB/BA cross-over design and in the primary analysis of efficacy, the levels of biomarkers of MI risk at the end of the treatment periods (visits 4 and 7) were used as primary response variables. The difference between DG-031 and placebo treatment was the primary outcome, assessed separately for each of the biomarkers. Treatment effect was tested using a two-sample t-test on the period differences for suitably transformed response variables, under an assumption of normality of the transformed data. We report treatment effect as one half of the observed mean differences in the two-sample t-test, with a 95% CI. No pre-tests for carry-over effect were performed as a part of the primary analysis. Tests for carry-over were done and are reported separately from results of primary analysis. All hypotheses were tested at a two-sided nominal significance level of 0.05 and p-values based on t-tests are reported. In addition, for the primary efficacy endpoints where the effects of the two highest doses on 10 primary variables were studied, a randomization test was performed which corrects for multiple testing and ensures that the key results are not affected by distributional concerns. In particular, 1 million permutations of the patients into the different study tracks were performed, generating a reference distribution for the maximum of the 10 t-statistics of the biomarkers under the null hypothesis of no drug effect. By comparing the observed t-statistic of each of the 10 biomarkers to this reference distribution, empirical p-values were computed. […]

[6] = tested on: LTB4 produced by ionomycin-activated neutrophils ex vivo; experiment: Study DG-031-201: LTB4 in whole blood ex vivo after ionomycin activation, mass spectrometry; design: species or system human
Method: as §3, §4
as §5, with “reported.” for “reported. In addition, for the primary efficacy endpoints where the effects of the two highest doses on 10 primary variables were studied, a randomization test was performed which corrects for multiple testing and ensures that the key results are not affected by distributional concerns. In particular, 1 million permutations of the patients into the different study tracks were performed, generating a reference distribution for the maximum of the 10 t-statistics of the biomarkers under the null hypothesis of no drug effect. By comparing the observed t-statistic of each of the 10 biomarkers to this reference distribution, empirical p-values were computed.”

MPO = experiment: Study DG-031-203 open label dose ranging: plasma MPO; format: in vivo, human
Method: as §2

[7] = difference visit 2 to visit 5, 500 and 750 mg/day vs placebo cohort

O=C(O)[C@@H](c1ccc(OCc2ccc3ccccc3n2)cc1)C1CCCC1 [DG-031, (R)-(+)-alpha-cyclopentyl-4-(2-quinolinylmethoxy)-Benzeneacetic acid]
Concentration at which MPO release is maximally inhibited in vitro [1]: ~2 μg/ml and about 6 μM | Reduction in CRP levels, high CRP group (CRP [2]; 250 mg TID, CRP above median (1.4 mg/L) at entry, P=0.014): 48% | CRP (CRP [2]; 250 mg TID, St. 203, 1 wk, p = 0.07): 37% (St. 203) | Reduction of serum CRP (CRP [2]; 250 mg TID, after one week of therapy, all subjects, follow-up study 203, [9%,57%]): 38% | CRP (CRP [2]; 375 mg BID, Study 203): No effect | Change in CRP (CRP [2]; 375 mg BID, all subjects, one week, p=0.94): −1% | Reduction of CRP, high CRP group (CRP [2]; 375 mg BID, p=0.16, not significant): 31% | CRP (CRP [2]; 375 mg QD, Study 203, 1 wk, p = 0.021): −28% | Expected reduction of capacity for LTB4 production at peak concentration ([3]; 250 mg TID peak, assuming ex vivo parallels in vitro response): about 65% | Expected reduction of capacity for LTB4 production at Cmin ([3]; 250 mg TID, concentrations above 2-3 μg/ml, assuming ex vivo parallels in vitro response): ≥ 30% | IC50 ([3]; human whole blood, ionomycin stimulation, read-out: in vitro IC50, capacity for LTB4 production): ~3 µM and ~1.1 µg/mL | Tolerability ([4]; 750 mg/day, previous phase I-II human studies in asthma): well tolerated | Safety and tolerability ([4]; total daily dose 500 mg, greater than 45-365 days): safe and well tolerated | Safety and tolerability ([4]; total daily dose 250, 500, 750 and 1000 mg, 14 days): safe and well tolerated | Safety and tolerability ([4]; total daily doses 100, 200, 250, 500 and 1000 mg, 14-42 days): safe and well tolerated | Reduction of SAA (Amyloid A): 15% | Reduction in CRP (CRP [5]; 250 mg BID and TID, end of wash-out period (week 6), p=0.02): 25% | CRP (CRP [5]; 250 mg BID, p = 0.016): −24% | CRP (CRP [5]; 250 mg QD, NS): −6% | Persistence of CRP reduction after week 6 (CRP [5]; after end of wash-out period): 4 weeks | Reduction of CRP (CRP [5]; higher two dose groups (250 mg BID and 250 mg TID), at 2 weeks, p=0.07, not significant): 16% | Maximum reduction in LTB4 production ([6]; 750 mg/day, [10%,39%], p=0.003): 26% | Carry-over effect, LTB4 in whole blood, corr. for wbc, m.s. [6, 7]: 0.12 | Carry-over effect, LTB4 in whole blood, mass spec. [6, 7]: 0.19 | Reduction of LTB4 produced by ionomycin-activated neutrophils ex vivo ([6]; pooled set of 500 mg and 750 mg arms, [6%,27%], nominal p=0.004): 17% | MPO in plasma (MPO; 250 mg TID, St. 203, 6 hours, P < 0.001): −37% (St. 203) | Drop of plasma MPO levels (MPO; 250 mg t.i.d., 6 hours after intake, [24%,47%], p<0.001): 37% | MPO in plasma (MPO; 375 mg BID, Study 203, 6 hours, NS): −24% | Lowering of plasma MPO levels (MPO; 375 mg BID, p=0.067): 24% | MPO in plasma (MPO; 375 mg QD, Study 203, 6 hours): No effect
